Measured values: paper PMC12909347, “Disconnect between in vitro and in vivo efficacy of the MPS1 inhibitor NTRC 0066-0 against glioblastoma” (Cellular Oncology, 2026)

How the values were obtained:
GSC556 = test: Cell survival assay, glioma stem cell line; assay type: cell-based, murine; details: GSC556 (EgfrvIII;p15Ink4b/p16Ink4a-/-;Pten-/-;Tp53-/-), Fig. 1C
Description: (§1) All cell lines were authenticated using STR profiling. The serum-cultured GBM cell lines U87 (RRID: CVCL_0022) and HS683 (RRID: CVCL_0844) were purchased from the ATCC (Manassas, VA), T98G (RRID: CVCL_0556) and LN-428 (RRID: CVCL_3959) cells were kindly provided by Dr. Conchita Vens (Netherlands Cancer Institute, Amsterdam, The Netherlands), E98 cells were obtained from Prof. Dr. William Leenders (Radboud University Medical Center, Nijmegen, The Netherlands), and LN-751 (RRID: CVCL_3964) were generously made available by Prof. Dr. Monika Hegi (Centre Hospitalier Universitaire Vaudois, Lausanne, Switzerland). GSC lines were isolated from murine tumors that were generated by stereotactic injection of Lenti–Cre vector in the striatum of Egfr^vIII;p15^Ink4b/p16^Ink4aF/F (GSC750), Egfr^vIII;p15^Ink4b/p16^Ink4aF/F;Pten^F/F (GSC578) or Egfr^vIII;p15^Ink4b/p16^Ink4aF/F;Pten^F/F;Tp53^F/F (GSC556) mice, as previously described.
(§2) Wells were pre-coated with poly-ornithine (15 µg/ml for 3 h at room temperature) and subsequently with laminin (7.5 µg/ml for 1 h at 37 °C) prior to seeding GSCs to make them adherent without inducing differentiation. […] Cells were plated in 24-wells plates at low cell densities (2,000–10,000 cells/well) and exposed to different concentrations of NTRC0066-0 24 h later. NTRC0066-0 was dissolved in DMSO (Sigma-Aldrich) for in vitro experiments and final DMSO concentrations never exceeded 0.1%. When untreated wells were confluent (approximately 6–10 days after seeding, dependent on the cell line), cells were fixed and stained using a solution containing 0.5% crystal violet (w/v; Sigma-Aldrich) and 6% glutaraldehyde (v/v; Honeywell, Morris Plains, NJ). Plates were imaged using a Chemi-Doc XRS+ (Bio-rad, Hercules, CA) and analyzed using the Colony Area plugin of ImageJ [24]. IC50 curves were fitted and plotted using the ‘log(inhibitor) vs. normalized response – Variable slope’ fitting procedure of GraphPad Prism v10.3 (GraphPad Software, La Jolla, CA). Monotherapy curves were corrected for untreated controls.

GSC578 = test: Cell survival assay, glioma stem cell line; assay type: cell-based, murine; details: GSC578 (EgfrvIII;p15Ink4b/p16Ink4a-/-;Pten-/-), Fig. 1C
Description: as §1, §2

GSC750 = test: Cell survival assay, glioma stem cell line; assay type: cell-based, murine; details: GSC750 (EgfrvIII;p15Ink4b/p16Ink4a-/-), Fig. 1C
Description: as §1, §2

LN-428 = test: Cell survival assay (crystal violet), continuous exposure; assay type: cell-based, human; details: LN-428, continuous exposure, Fig. 1A
Experimental: as §2

HS683 = test: as above; assay type: cell-based, human; details: Fig. 1A
Experimental: as §2

BCRP = biological target: T1, BCRP (Mus musculus, UniProt Q7TMS5); test: Brain penetration in Abcg2-/- mice; assay type: in vivo; details: 1 h after 5 mg/kg i.v.
T1 construct: from tissue; host or cells: blood-brain barrier / brain of FVB mice (WT versus Abcg2-/-)
T1 sequence (Q7TMS5 1-657): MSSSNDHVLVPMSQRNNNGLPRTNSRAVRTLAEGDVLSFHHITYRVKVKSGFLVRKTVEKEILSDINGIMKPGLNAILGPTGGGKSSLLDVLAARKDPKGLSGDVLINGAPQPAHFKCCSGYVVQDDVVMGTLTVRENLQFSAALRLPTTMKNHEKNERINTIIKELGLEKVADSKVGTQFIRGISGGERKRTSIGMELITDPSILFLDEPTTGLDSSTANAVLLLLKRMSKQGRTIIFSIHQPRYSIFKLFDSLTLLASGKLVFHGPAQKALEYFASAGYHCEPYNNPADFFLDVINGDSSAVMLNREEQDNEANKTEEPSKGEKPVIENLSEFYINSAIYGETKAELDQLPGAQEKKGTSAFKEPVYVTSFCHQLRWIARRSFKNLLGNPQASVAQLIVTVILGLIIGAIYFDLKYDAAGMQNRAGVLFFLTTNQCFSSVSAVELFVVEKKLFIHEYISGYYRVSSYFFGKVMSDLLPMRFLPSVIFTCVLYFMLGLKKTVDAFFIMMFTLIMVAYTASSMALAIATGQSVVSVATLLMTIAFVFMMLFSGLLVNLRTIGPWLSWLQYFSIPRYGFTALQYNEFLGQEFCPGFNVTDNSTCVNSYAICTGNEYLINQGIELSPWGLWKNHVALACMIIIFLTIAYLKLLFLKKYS
Experimental: (§3) The pharmacokinetics of NTRC 0066-0 were analyzed in wild-type (WT), Abcb1a/b^−/−, Abcg2^−/−, Abcb1a/b^−/−;Abcg2^−/− and Abcb1a/b^−/−;Abcg2^−/−;Abcc4^−/− FVB mice. All knockout mice strains have been developed at the Netherlands Cancer Institute. For i.v. administration, NTRC0066-0 was formulated in DMSO: Cremophor EL: saline (1:1:8 v/v) and injected at a dose of 5 mg/kg. For i.p and oral administration, NTRC0066-0 was administered at 5, 10 or 20 mg/kg as indicated. Serial blood sampling was done by tail vein bleeding at specific time points. At terminal time points, blood was drawn by cardiac puncture followed by tissue collection. Plasma was obtained from whole blood by centrifugation (5 min, 5,000 rpm, 4 °C) and tissues were weighed and homogenized using a FastPrep®-24 (MP-Biomedicals, NY) in 1% (w/v) bovine serum albumin (Sigma-Aldrich) in water.
NTRC 0066-0 was extracted from in vitro and in vivo samples using liquid–liquid extraction with diethyl ether. Another MPS-1 inhibitor, Compound 5 (Cpd-5), was added to the samples as an internal standard. The dried organic phase was reconstituted in 30% methanol in water (v/v). Samples were measured using an LC-MS/MS system comprising an UltiMate 3000 LC Systems (Dionex, Sunnyvale, CA) and an API 4000 mass spectrometer (Sciex, Framingham, MA). […]

P-gp = test: Brain penetration in Abcb1a/b-/- mice; assay type: in vivo; details: 1 h after 5 mg/kg i.v.
Experimental: as §3
NTRC 0066-0 was extracted from in vitro and in vivo samples using liquid–liquid extraction with diethyl ether. Another MPS-1 inhibitor, Compound 5 (Cpd-5), was added to the samples as an internal standard. The dried organic phase was reconstituted in 30% methanol in water (v/v). Samples were measured using an LC-MS/MS system comprising an UltiMate 3000 LC Systems (Dionex, Sunnyvale, CA) and an API 4000 mass spectrometer (Sciex, Framingham, MA). Samples were injected on to a Securityguard C18 pre-column (Phenomenex, Utrecht, The Netherlands) connected to a ZORBAX Extend-C18 column (Agilent, Santa Clara, CA). Elution was done at a flow rate of 0.2 mL/min using a 5 min gradient from 20% to 95% B (mobile phase A was 0.1% HCOOH in water (v/v) and mobile phase B was methanol). 95% B was maintained for 3 min followed by re-equilibration at 20% B. Multiple reaction monitoring parameters were 566.2/391.4 (NTRC0066-0) and 581.6/397.0 (internal standard). Analyst® 1.6.2 software (Sciex) was used for system control and data analysis.

CCc1cccc(CC)c1NC(=O)c1ccn2c1CCc1cnc(Nc3ccc(N4CCN(C)CC4)cc3OC)nc1-2 [NTRC 0066-0]
IC50 (GSC556): 20 nM | IC50 (GSC578): 46 nM | IC50 (GSC750): 25 nM | IC50 (LN-428): 39 nM | IC50 (HS683): 42 nM | Plasma and brain concentrations compared to WT mice (BCRP): no differences | Brain concentration compared to WT mice (P-gp): markedly increased | Brain-plasma ratio compared to WT mice (P-gp): markedly increased | Plasma concentration compared to WT mice (P-gp): similar
